Results: patent US20250228815A1, “LYOPHILIZED RESINIFERATOXIN” (Gruenenthal GmbH, priority 2024, published 2025)
≈ marks a conversion by molar mass, not a printed value. Where two headings read alike, the source gives them in different places.

Experiments:
[1] = randomized, double-blind, placebo-controlled, single-dose trial of intraarticular Resiniferatoxin: analgesic effect (VAS pain on motion, WOMAC); type: in vivo, human
Procedure: (§1) The primary objective of this study was to compare the analgesic effects of single intraarticular injections of Resiniferatoxin (100 or 400 ng) compared to placebo, at 3 and 6 months postinjection, in participants with chronic osteoarthritic knee joint pain. Secondary objectives were to evaluate the analgesic effects of Resiniferatoxin versus placebo in terms of a responder analysis (percentage of subjects achieving ≥50% or ≥70% reduction in visual analog scale pain score) and changes in Western Ontario and McMaster Universities Arthritis Index (WOMAC) total and subscale scores (pain, physical function and stiffness). Safety and injection site pain were also evaluated.
(§2) The study was conducted as a randomized, double-blind, placebo-controlled, single-dose trial of Resiniferatoxin. Eligible patients were aged 40 to 80 years with radiographic knee osteoarthritis (Kellgren-Lawrence Grade 2-4 in the last 3 years) and a baseline visual analog scale (0-100 mm) pain score ≥40 mm on motion in the target knee, with or without pain medication. 67 subjects were randomized to treatment with either Resiniferatoxin 100 ng (n=24) or 400 ng (n=23), or placebo (n=20), administered intraarticularly into the index knee. Intraarticular Ropivacaine (5 ml, 0.5%) was administered 15 mins before investigational medicinal product. Visual analog scale scores were used to evaluate pain on motion as the average of the last 2 days in a target knee between baseline and at 3 and 6 months post injection. Injection site pain was rated (visual analog scale) from baseline (−0.5 h) up to 3 h post intraarticular injections.
Data values plotted as mean±standard error of mean, offset in X for clarity. ▴ Placebo (n=20); ▪ Resiniferatoxin 100 ng (n=24); ● Resiniferatoxin 400 ng (n=23).

[2] = cited from earlier work
[3] = same trial: safety, treatment emergent adverse events and injection site pain; type: in vivo, human; conditions: for subjects with severe adverse events: none related to investigational medicinal product
Procedure: as §1, §2

[4] = maximum solubility of Resiniferatoxin by the equilibrium method (HPLC); type: physicochemical; conditions: buffer medium with TPGS, 25 °C, pH 8, aqueous with cosolvent or surfactant or cyclodextrin, thermodynamic from solid, TPGS 3.5 mg/ml, n ≥ 3, read-out: RTX solubility
Procedure: The maximum solubility of Resiniferatoxin in various liquids was investigated by the equilibrium method.
Buffer media were saturated with an excess amount of Resiniferatoxin (characterized by undissolved API) and incubated at 25° C. while shaking (150 rpm) for 72 h. After incubation, 1 mL of each sample was centrifuged (10 min, 12045 RCF) and the supernatant was used to determine the amount of solubilized Resiniferatoxin via HPLC.

[5] = single intraarticular 100 ng or 400 ng

Q: For `C=C(C)[C@]12C[C@@H](C)[C@@]34O[C@](Cc5ccccc5)(O[C@@H]1[C@@H]3C=C(COC(=O)Cc1ccc(O)c(OC)c1)C[C@]1(O)C(=O)C(C)=C[C@@H]41)O2` [Resiniferatoxin, 4-hydroxy-3-methoxy-benzeneacetic acid, [(2S,3aR,3bS,6aR,9aR,9bR, 10R,11aR)-3a,3b,6,6a,9a,10,11,11a-octahydro-6a-hydroxy-8,10-dimethyl-11a-(1-methylethenyl)-7-oxo-2-(phenylmethyl)-7H-2,9b-epoxyazuleno[5,4-e]-1,3-benzodioxol-5-yl]methyl ester], which “reduction in WOMAC total and subscale scores (pain, physical function and stiffness) compared to placebo” value ([1]; 100 ng and 400 ng, at both 3 and 6 months) is on record?
A: greater reduction

Q: What about the “pain reduction compared to placebo” value ([1]; 100 ng or 400 ng intraarticular) of the same compound?
A: greater pain reduction

Q: What about the “first trial visit at which reduction in VAS pain on motion was observed” value ([1]; intention-to-treat population) of the same compound?
A: 8 days

Q: What about the “last trial visit until which the effect lasted” value ([1]; intention-to-treat population) of the same compound?
A: 6 month

Q: And the “analgesic onset after administration” value [1, 5]?
A: within one week

Q: What about the “duration for which analgesia was evident during follow-up” value [1, 5] of the same compound?
A: at least 3 months

Q: What about the efficacy ([2]; 5 μg, 12.5 μg, 20 μg and 30 μg cohorts, preliminary) of the same compound?
A: Preliminary efficacy was also observed

Q: And the safety ([2]; onetime intraarticular injection up to 30 μg)?
A: demonstrated safety

Q: What about the “subjects with severe adverse events” value ([3]; Resiniferatoxin 100 ng) of the same compound?
A: 2 subjects

Q: And the “subjects with severe adverse events” value ([3]; Resiniferatoxin 400 ng)?
A: 3 subjects

Q: What about the “injection site pain (procedural pain) compared to placebo” value ([3]; highly variable across treatment groups) of the same compound?
A: generally higher

Q: And the “time of peak injection site pain post-injection” value ([3]; intraarticular injection, moderate-severe intensity in some subjects)?
A: around 0.5 h

Q: What about the “injection site pain, return to baseline” value ([3]; post intraarticular injection) of the same compound?
A: ≤ 3 h

Q: What about the “safety profile and tolerability” value [3, 5] of the same compound?
A: good safety profile

Q: What does the source list for `C=C(C)[C@]12C[C@@H](C)[C@@]34O[C@](Cc5ccccc5)(O[C@@H]1[C@@H]3C=C(COC(=O)Cc1ccc(O)c(OC)c1)C[C@]1(O)C(=O)C(C)=C[C@@H]41)O2` [RTX]?
A: solubility at 72 h ([4]; Ex. 5-1: no ethanol, NaCl 8.58, CaCl2 0.2, KCl 0.1, trometamol 0.4 mg/ml, pH 8.0, mean ± SD): 333 ± 100 µg/mL (≈ 530 µM); solubility at 72 h ([4]; Ex. 5-2: ethanol 39.44 mg/ml, NaCl 8.58, CaCl2 0.58, KCl 0.3, trometamol 1.22 mg/ml, pH 8.0, mean ± SD): 630 ± 38 µg/mL (≈ 1000 µM); solubility at 72 h ([4]; Ex. 5-3: ethanol 39.44 mg/ml, mannitol 14.9 mg/ml, salts as Ex. 5-2, pH 8.0, mean ± SD): 336 ± 53 µg/mL; solubility at 72 h ([4]; Ex. 5-4: no ethanol, NaCl 8.58, CaCl2 0.58, KCl 0.3, trometamol 1.22 mg/ml, pH 8.0, mean ± SD): 317 ± 75 µg/mL (≈ 504 µM)
